This note sets out measurements from patent publication US9023852B2, “1, 2, 4-thiadiazol-5-ylpiperazine derivatives useful in the treatment of neurodegenerative diseases” (Remynd NV, priority 2011, dated 2015).

What is called EC50 is the concentration needed to bring the measured effect to its halfway point.

This test deals with M17—3TAU(P301L) cells. Description: Neuroblastoma tauopathy model: inhibition of TAU-induced cytotoxicity (LDH). It is filed as cell-based. The settings on record: Homo sapiens, 168 h; inhibition of TAU-induced toxicity (LDH), 7 days differentiation with retinoic acid. The source says:
A TAU expression plasmid was constructed by sub-cloning the cDNA encoding for human TAU-P301L protein, wherein proline at position 301 is substituted by a leucine residue, into mammalian expression vector pcDNA3.1 resulting in the plasmid pcDNA3.1-TAUP301L. Plasmids pcDNA3.1 and pcDNA3.1-TAU P301L were transfected into human neuroblastoma cells (BE-M17; ATCC No. CRL-2267™) using lipofectamine reagent and subsequently, independent clonal cell lines with the plasmids stably integrated into the genome were selected by antibiotic resistance selection (Geneticin (G418)), resulting in cell lines M17.pcDNA3 and M17—3TAUP301L. Expression of the TAUP301L gene in the M17—3TAUP301L cells was confirmed by Western blot analysis.
Differentiation of the cells with RA leads to phosphorylation and subsequent aggregation of TAU, inducing a tauopathy in these cells. Cytotoxicity of cells was measured by quantification of lactate dehydrogenase (LDH) levels. In dead cells LDH is leaked out of the cells into the medium due to a loss of plasma-membrane integrity.
Briefly, 3 days preceding the experiment pre-cultures of M17.pcDNA3 and M17—3TAU(P301L) cells were prepared, starting from a stock culture, at a density of 50.000-100.000 cells/cm2 in detection medium (Optimem Reduced Serum without phenol red (Gibco, Cat. 31985-047) supplemented with 1% fetal calf serum (FCS), 1 mM sodium pyruvate, 1× non-essential amino acids (NEAA), 500 μg/ml G418 and 0.5× antibiotic/antimycotic (ABAM)). At the day of the experiment these precultures were diluted to ˜0, 1.106 cells/ml in detection medium without FCS and 60 μL of this suspension is dispensed per well into a 96-well microtiter plate. After 3 hours of incubation at 37° C./5% CO2 an equal volume of detection medium containing 2.5 μM RA was added and subsequently incubated for 7 days at 37° C./5% CO2. After 7 days, LDH activity was determined using the Promega Cytotox 96 Non-Radioactive cytotoxicity assay (Cat. G1780), according the manufacturer's instructions. Cytotoxicity is measured as the ratio of LDH increase in the supernatant divided by the LDH increase in the total cell suspension (sum of the LDH measured in cells and supernatant).
The M17—3TAU(P301L) cell line makes it possible to assess the ability of novel compounds to inhibit TAU-induced cytotoxicity. […] Compounds were tested for their ability to hamper TAU-induced toxicity at different concentrations, ranging from low non-effective concentrations to high potent concentrations. Afterwards, the dose-dependent inhibition curve was used to calculate their EC50 (Table 1).
`Cc1ccc(-c2nsc(N3CCN(Cc4ccc(Cl)cc4Cl)CC3)n2)cc1` [Example 3, 1-(2,4-Dichloro-benzyl)-4-(3-p-tolyl-[1,2,4]thiadiazol-5-yl)-piperazine] returned an EC50 of 0.987 µM.
As for `Cc1ccc(-c2nsc(N3CCN(CCc4ccccc4)CC3)n2)cc1` [Example 4, 1-Phenethyl-4-(3-p-tolyl-[1,2,4]thiadiazol-5-yl)-piperazine], a half-maximal response (EC50) required 0.115 µM.
The value for `Cc1ccc(-c2nsc(N3CCN(CCc4ccc(Cl)c(Cl)c4)CC3)n2)cc1` [Example 5, 1-[2-(3,4-Dichloro-phenyl)-ethyl]-4-(3-p-tolyl-[1,2,4]thiadiazol-5-yl)-piperazine] was 0.396 µM; that for `Cc1ccc(-c2nsc(N3CCN(Cc4ccccc4C)CC3)n2)cc1` [Example 6, 1-(2-Methyl-benzyl)-4-(3-p-tolyl-[1,2,4]thiadiazol-5-yl)-piperazine] was 0.278 µM; that for `Cc1ccccc1CN1CCN(c2nc(-c3ccc(Cl)cc3)ns2)CC1` [Example 12, 1-[3-(4-Chloro-phenyl)-[1,2,4]thiadiazol-5-yl]-4-(2-methyl-benzyl)-piperazine] was 0.269 µM.
Turning to `COc1cccc(-c2nsc(N3CCN(Cc4ccccc4C)CC3)n2)c1` [Example 13, 1-[3-(3-Methoxy-phenyl)-[1,2,4]thiadiazol-5-yl]-4-(2-methyl-benzyl)-piperazine], the EC50 is 0.215 µM.
Consider `COc1cccc(CCN2CCN(c3nc(-c4ccc(Cl)cc4)ns3)CC2)c1` [Example 14, 1-[3-(4-Chloro-phenyl)-[1,2,4]thiadiazol-5-yl]-4-[2-(3-methoxy-phenyl)-ethyl]-piperazine], for which the EC50 amounted to 0.0048 µM.
The same measure for `COc1cccc(CCN2CCN(c3nc(-c4cccc(OC)c4)ns3)CC2)c1` [Example 15, 1-[2-(3-Methoxy-phenyl)-ethyl]-4-[3-(3-methoxy-phenyl)-[1,2,4]thiadiazol-5-yl]-piperazine]: 0.0214 µM; for `COc1cccc(CCN2CCN(c3nc(-c4ccc(C)cc4)ns3)CC2)c1` [Example 16, 1-[2-(3-Methoxy-phenyl)-ethyl]-4-(3-p-tolyl-[1,2,4]thiadiazol-5-yl)-piperazine]: 0.0653 µM; for `COc1ccc(CCN2CCN(c3nc(-c4ccc(Cl)cc4)ns3)CC2)cc1` [Example 17, 1-[3-(4-Chloro-phenyl)-[1,2,4]thiadiazol-5-yl]-4-[2-(4-methoxy-phenyl)-ethyl]-piperazine]: 0.0008 µM.
For the compound `COc1ccc(CCN2CCN(c3nc(-c4cccc(OC)c4)ns3)CC2)cc1` [Example 18, 1-[2-(4-Methoxy-phenyl)-ethyl]-4-[3-(3-methoxy-phenyl)[1,2,4]thiadiazol-5-yl]-piperazine], the EC50 was 0.367 µM.
The compound `COc1ccc(CCN2CCN(c3nc(-c4ccc(C)cc4)ns3)CC2)cc1` [Example 19, 1-[2-(4-Methoxy-phenyl)-ethyl]-4-(3-p-tolyl-[1,2,4]thiadiazol-5-yl)-piperazine] had an EC50 of 0.002 µM.
The same measure for `COc1cccc(CCN2CCN(c3nc(-c4ccncc4)ns3)CC2)c1` [Example 20, 1-[2-(3-Methoxy-phenyl)-ethyl]-4-(3-pyridin-4-yl-[1,2,4]thiadiazol-5-yl)-piperazine]: 0.174 µM; for `Fc1cccc(CCN2CCN(c3nc(-c4ccc(Cl)cc4)ns3)CC2)c1` [Example 21, 1-[3-(4-Chloro-phenyl)-[1,2,4]thiadiazol-5-yl]-4-[2-(3-fluoro-phenyl)-ethyl]-piperazine]: 0.0095 µM.
`Clc1ccc(-c2nsc(N3CCN(CCc4cccc(Cl)c4)CC3)n2)cc1` [Example 22, 1-[2-(3-Chloro-phenyl)-ethyl]-4-[3-(4-chloro-phenyl)-[1,2,4]thiadiazol-5-yl]-piperazine] registered a half-maximal effective concentration (EC50) of 0.0042 µM.
On to `Cc1cccc(CCN2CCN(c3nc(-c4ccc(Cl)cc4)ns3)CC2)c1` [Example 23, 1-[3-(4-Chloro-phenyl)-[1,2,4]thiadiazol-5-yl]-4-(2-m-tolyl-ethyl)-piperazine], for which the EC50 was determined as 0.0019 µM.
On to `Fc1ccc(CCN2CCN(c3nc(-c4ccc(Cl)cc4)ns3)CC2)cc1` [Example 24, 1-[3-(4-Chloro-phenyl)-[1,2,4]thiadiazol-5-yl]-4-[2-(4-fluoro-phenyl)-ethyl]-piperazine], for which it took 0.0007 µM to reach a half-maximal effect (EC50).
The same measure for `Clc1ccc(CCN2CCN(c3nc(-c4ccc(Cl)cc4)ns3)CC2)cc1` [Example 25, 1-[2-(4-Chloro-phenyl)-ethyl]-4-[3-(4-chloro-phenyl)-[1,2,4]thiadiazol-5-yl]-piperazine]: 0.0077 µM.
The value for `Cc1ccc(CCN2CCN(c3nc(-c4ccc(Cl)cc4)ns3)CC2)cc1` [Example 26, 1-[3-(4-Chloro-phenyl)-[1,2,4]thiadiazol-5-yl]-4-(2-p-tolyl-ethyl)-piperazine] was 0.0049 µM; that for `COc1ccccc1CCN1CCN(c2nc(-c3ccc(Cl)cc3)ns2)CC1` [Example 27, 1-[3-(4-Chloro-phenyl)-[1,2,4]thiadiazol-5-yl]-4-[2-(2-methoxy-phenyl)-ethyl]-piperazine] was 0.0167 µM; that for `Fc1ccccc1CCN1CCN(c2nc(-c3ccc(Cl)cc3)ns2)CC1` [Example 28, 1-[3-(4-Chloro-phenyl)-[1,2,4]thiadiazol-5-yl]-4-[2-(2-fluoro-phenyl)-ethyl]-piperazine] was 0.0452 µM.
On to `Clc1ccc(-c2nsc(N3CCN(CCc4ccccc4Cl)CC3)n2)cc1` [Example 29, 1-[2-(2-Chloro-phenyl)-ethyl]-4-[3-(4-chloro-phenyl)-[1,2,4]thiadiazol-5-yl]-piperazine], for which the 50% effective concentration (EC50) amounted to 0.0013 µM.
In turn, `COc1cccc(CCN2CCN(c3nc(-c4ccc(C(F)(F)F)nc4)ns3)CC2)c1` [Example 30, 1-[2-(3-Methoxy-phenyl)-ethyl]-4-[3-(6-trifluoromethyl-pyridin-3-yl)-[1,2,4]thiadiazol-5-yl]-piperazine] yielded an EC50 of 0.147 µM.
In turn, `COc1cccc(CCN2CCN(c3nc(-c4cc(Cl)cc(Cl)c4)ns3)CC2)c1` [Example 31, 1-[3-(3,5-Dichloro-phenyl)-[1,2,4]thiadiazol-5-yl]-4-[2-(3-methoxy-phenyl)-ethyl]-piperazine] returned an EC50 of 0.0211 µM.
On to `COc1cccc(CCCN2CCN(c3nc(-c4ccc(Cl)cc4)ns3)CC2)c1` [Example 32, 1-[3-(4-Chloro-phenyl)-[1,2,4]thiadiazol-5-yl]-4-[3-(3-methoxy-phenyl)-propyl]-piperazine], for which a half-maximal effect (EC50) was put at 0.368 µM.
The same measure for `COc1cccc(CCN2CCN(c3nc(-c4cccs4)ns3)CC2)c1` [Example 33, 1-[2-(3-Methoxy-phenyl)-ethyl]-4-(3-thiophen-2-yl-[1,2,4]thiadiazol-5-yl)-piperazine]: 0.158 µM; for `COc1cccc(CCN2CCN(c3nc(-c4ccc(F)cc4)ns3)CC2)c1` [Example 34, 1-[3-(4-Fluoro-phenyl)-[1,2,4]thiadiazol-5-yl]-4-[2-(3-methoxy-phenyl)-ethyl]-piperazine]: 0.0014 µM.
On to `COc1cccc(CCN2CCN(c3nc(-c4ccccc4OC)ns3)CC2)c1` [Example 35, 1-[2-(3-Methoxy-phenyl)-ethyl]-4-[3-(2-methoxy-phenyl)-[1,2,4]thiadiazol-5-yl]-piperazine], for which the midpoint of the response, the EC50, lay at 0.0035 µM.
Compound `COc1cccc(CCN2CCN(c3nc(-c4ccc(OC(F)(F)F)cc4)ns3)CC2)c1` [Example 36, 1-[2-(3-Methoxy-phenyl)-ethyl]-4-[3-(4-trifluoromethoxy-phenyl)-[1,2,4]thiadiazol-5-yl]-piperazine] yielded an EC50 of 0.119 µM.
Turning to `COc1ccc(CCN2CCN(c3nc(-c4ccc(OC(F)(F)F)cc4)ns3)CC2)cc1` [Example 37, 1-[2-(4-Methoxy-phenyl)-ethyl]-4-[3-(4-trifluoromethoxy-phenyl)-[1,2,4]thiadiazol-5-yl]-piperazine], the EC50 was found to be 0.0029 µM.
`FC(F)(F)Oc1cccc(CCN2CCN(c3nc(-c4ccc(Cl)cc4)ns3)CC2)c1` [Example 38, 1-[3-(4-Chloro-phenyl)-[1,2,4]thiadiazol-5-yl]-4-[2-(3-trifluoromethoxy-phenyl)-ethyl]-piperazine] showed an EC50 of 0.211 µM.
`COc1ccccc1CCCN1CCN(c2nc(-c3ccc(Cl)cc3)ns2)CC1` [Example 39, 1-[3-(4-Chloro-phenyl)-[1,2,4]thiadiazol-5-yl]-4-[3-(2-methoxy-phenyl)-propyl]-piperazine] gave an EC50 of 0.0435 µM.
For `COc1ccc(CCN2CCN(c3nc(-c4ccc(OC)cc4)ns3)CC2)cc1` [Example 40, 1-[2-(4-Methoxy-phenyl)-ethyl]-4-[3-(4-methoxy-phenyl)-[1,2,4]thiadiazol-5-yl]-piperazine], the EC50 was found to be 0.0141 µM.
